The target in data set [1] is T1, Recombinant rhinovirus 3C protease, serotype 14 (Human rhinovirus 14, UniProt P03303).
T1 construct: Recombinant rhinovirus 3C proteases; made in house
The data set is described as follows: Inhibition of rhinovirus 3C protease (FRET assay, kobs/[I]), serotype 14. The class given is biochemical. The method, boiled down: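 Enzyme-start FRET assay with ~1 μM DABCYL/EDANS peptide substrate and 50-100 nM recombinant protease in 50 mM tris pH 7.6, 1 mM EDTA, 2% DMSO. Cleavage followed as fluorescence increase; kobs/[I] derived from progress curves.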

In a further data set the test system is HRV-14. The experiment in a line: Antirhinoviral H1-HeLa cell culture assay (XTT cell protection, EC50), HRV-14. The class given is cell-based, human rhinovirus (HRV) serotype-14 in H1-HeLa cells. The settings on record: Rhinovirus B, HRV14, H1-HeLa. The procedure, abridged: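 H1-HeLa cells were infected with HRV-14 at m.o.i. 0.13, or mock-infected, and incubated with compound for two days. Cell protection was read by XTT/PMS formazan absorbance at 450/650 nm to give EC50. CC50 came from mock-infected cells, and TI = CC50/EC50.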
In general terms: Tetrazolium dyes change colour on reduction, which living cells bring about.

Data set [2] relates to Coxsackievirus type A-21 (CAV-21). The data set is described as follows: Anticoxsackieviral cell culture assay (XTT, EC50), CAV-21. The class given is cell-based, coxsackievirus A-21 in H1-HeLa cells. The settings on record: Coxsackievirus. The protocol: Anticoxsackieviral Cell Culture Assay:
Coxsackievirus types A-21 (CAV-21) and B3 (CVB3) were purchased from American Type Culture Collection (ATCC, Rockville, Md.). Virus stocks were propagated and antiviral assays were performed in H1-HeLa cells (ATCC). Cells were grown in minimal essential medium with 10% fetal bovine serum (Life Technologies, Gaithersburg, Md.). The ability of the compounds of this invention to protect cells against either CAV-21 or CVB3 infection was measured by the XTT dye reduction method. This method is described in Weislow et al., J. Natl. Cancer Inst. (1989), vol. 81, 577-586. H1-HeLa cells were infected with CAV-21 or CVB3 at a multiplicity of infection (m.o.i.) of 0.025 or 0.075, respectively, or mock-infected with medium only. H1-HeLa cells were plated at 4×10^4 cells per well in a 96-well plate and incubated with appropriate concentrations of the test compound. One day (CVB3) or two days (CAV-21) later, XTT/PMS was added to test plates and the amount of formazan produced was quantified spectrophotometrically at 450/650 nm. […] The therapeutic index (TI) was calculated by dividing the CC50 by the EC50.

Data set [3] in a line: Cytotoxicity (CC50) in uninfected MRC-5 cells, XTT dye reduction. The data set is classed as cell-based, human. The settings on record: human, MRC-5 cells, uninfected (mock-infected). Here is the method:
Echovirus type 11 (ECHO 11) was purchased from ATCC (Rockville, Md.). Virus stocks were propagated and antiviral assays were performed in MRC-5 cells (ATCC). Cells were grown in minimal essential medium with 10% fetal bovine serum (Life Technologies, Gaithersburg, Md.). The ability of the compounds of this invention to protect cells against ECHO 11 infection was measured by the XTT dye reduction method (Weislow et al., J. Natl. Cancer Inst. (1989), vol. 81, 577-586). MRC-5 cells were infected with ECHO 11 at an m.o.i. of 0.003 or 0.004, respectively, or mock-infected with medium only. Infected or uninfected cells were added at 1×10^4 cells per well and incubated with appropriate concentrations of compound. Four days later, XTT/PMS was added to test plates, and the amount of formazan produced was quantified spectrophotometrically at 450/650 nm. […] The therapeutic index (TI) was calculated by dividing the CC50 by the EC50. Activity of the compounds against enterovirus type 70 (EV 70) may be measured by the same assay as described above in this section. Enterovirus type 70 (EV 70) may be obtained from the American Type Culture Collection ATCC (Rockville, Md.).

A further data set has as its system coxsackievirus B2 (CVB2). The data set is described as follows: Anticoxsackieviral cell culture assay (EC50), CVB2. The class given is cell-based. The settings on record: Enterovirus B.
For a further data set, the system named is echovirus 9 (ECHO-9). The data set is described as follows: Anti-echoviral cell culture assay (EC50), ECHO-9. The settings on record: Enterovirus B. The data set is classed as cell-based.
Where [4] appears, read: pH 7.6, HRV-14, read-out: kobs/[I] (3C protease inhibition activity).
The mark [5] stands for this setting: pH 7.6, HRV-14 3C protease, read-out: kobs/[I] (3C protease inhibition activity).

SMILES strings stand for the structures. Read-outs that look alike come from different tables or passages of the source. Some results are limits rather than exact numbers.

T1 sequence (P03303 1538-1719): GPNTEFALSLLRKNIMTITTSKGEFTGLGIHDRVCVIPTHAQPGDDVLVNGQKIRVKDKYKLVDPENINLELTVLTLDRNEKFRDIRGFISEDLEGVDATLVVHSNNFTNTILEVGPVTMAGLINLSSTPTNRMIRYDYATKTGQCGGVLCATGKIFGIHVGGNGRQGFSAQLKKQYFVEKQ

For orientation: EC50 means the midpoint of the concentration-response curve. High values mean a less potent agent, low ones a more potent agent. In general, CC50 refers to the concentration giving 50% cytotoxicity. Regarding `CCOC(=O)/C=C/[C@H](C[C@@H]1CCNC1=O)NC(=O)[C@H](CC)n1cccc(NC(=O)c2cc(C)on2)c1=O` [Compound 26, trans-(2′S,3″″S,4S)-4-(2′-{3″-[(5′″-Methylisoxazole-3′″-carbonyl)amino]-2″-oxo-2″H-pyridin-1″-yl}butyrylamino)-5-(2″″-oxopyrrolidin-3″″-yl)pent-2-enoic Acid Ethyl Ester], the kinact/KI in data set [1] (setting [4]) was 170000 M⁻¹ s⁻¹. In addition, the EC50 was 55 nM with HRV-14, 121 nM in data set [2], 55 nM in the data set on coxsackievirus B2 (CVB2) and 15 nM in the data set with echovirus 9 (ECHO-9). Besides, in data set [3] (line of ECHO-11), the CC50 at 4 days is above 10000 nM.
On to `C#CC[C@@H](C(=O)N[C@H](/C=C/C(=O)OCC)C[C@@H]1CCNC1=O)n1cccc(NC(=O)c2cc(C)on2)c1=O` [Compound 31, trans-(2′S,3″″S,4S)-4-(2′-{3″-[(5′″-Methyl-isoxazole-3′″-carbonyl)amino]-2″-oxo-2″H-pyridin-1″-yl}pent-4′-ynoyl-amino)-5-(2″″-oxopyrrolidin-3″″-yl)pent-2-enoic Acid Ethyl Ester], for which, in data set [1] (pH 7.6, read-out: kobs/[I] (3C protease inhibition activity)), the kinact/KI was 223000 M⁻¹ s⁻¹. For the same compound, the EC50 in the data set with HRV-14 was determined as 22 nM; in data set [2], 161 nM; in the data set on coxsackievirus B2 (CVB2), 57 nM; in the data set on echovirus 9 (ECHO-9), 12 nM. The CC50 at 4 days in data set [3] (line of ECHO-6) is above 10000 nM.
`CCOC(=O)/C=C/[C@H](C[C@@H]1CCNC1=O)NC(=O)[C@H](Cc1ccc(F)c(F)c1)n1cccc(NC(=O)c2cc(C)on2)c1=O` [Compound 33, trans-(2′S,3′″″S,4S)-4-(3′-(3″,4″-Difluorophenyl)-2′-{3′″-[(5″″-methylisoxazole-3″″-carbonyl)amino]-2′″-oxo-2′″H-pyridin-1′″-yl}propionylamino)-5-(2′″″-oxopyrrolidin-3′″″-yl)pent-2-enoic Acid Ethyl Ester]: in data set [1] (setting [4]), the kinact/KI was found to be 1.8e+06 M⁻¹ s⁻¹. Also, the EC50 in the data set with HRV-14 was determined as 1 nM; in data set [2], 4 nM; in the data set with coxsackievirus B2 (CVB2) it was 15 nM; with echovirus 9 (ECHO-9), 3 nM. The CC50 at 4 days in data set [3] (line of ECHO-11) was above 10000 nM.
Consider `C#CC[C@@H](C(=O)N[C@H](/C=C/C(=O)OC(C)(C)C)C[C@@H]1CCNC1=O)n1cccc(NC(=O)c2cc(C)on2)c1=O` [Compound 41, trans-(2′S,3′″″S,4S)-4-[2′-(3″-{[1′″-(5″″-Methylisoxazol-3″″-yl)methanoyl]amino}-2′″-oxo-2′″H-pyridin-1′″-yl)pent-4″-ynoylamino]-5-(2′″″-oxopyrrolidin-3′″″-yl)pent-2-enoic Acid tert-Butyl Ester], for which the kinact/KI in data set [1] (setting [4]) worked out at 60500 M⁻¹ s⁻¹. Also, the 50% effective concentration (EC50) in the data set with HRV-14 came out at 62 nM; in data set [2], 593 nM; with coxsackievirus B2 (CVB2) it was 213 nM; in the data set with echovirus 9 (ECHO-9) it was 106 nM. In data set [3] (line of ECHO-11), this compound had a CC50 at 4 days above 10000 nM.
Consider `Cc1cc(C(=O)Nc2cccn([C@@H](Cc3ccc(F)c(F)c3)C(=O)N[C@H](/C=C/C(=O)OC(C)C)C[C@@H]3CCNC3=O)c2=O)no1` [Compound 48, trans-(2′S,3″″″S,4S)-4-[3′-(3″,4″-Difluorophenyl)-2′-(3′″-{[1″″-(5′″″-methylisoxazol-3′″″-yl)methanoyl]amino}-2″″-oxo-2″″H-pyridin-1″″-yl)propanoylamino]-5-(2″″″-oxopyrrolidin-3″″″-yl)pent-2-enoic Acid Isopropyl Ester], for which the concentration giving a half-maximal response (EC50) with HRV-14 was 3 nM; in data set [2], 1120 nM; in the data set with coxsackievirus B2 (CVB2) it was 162 nM; with echovirus 9 (ECHO-9) it was 57 nM. In data set [3] (line of ECHO-9), this compound displayed a 50% cytotoxic concentration (CC50) at 4 days above 10000 nM.
With `C#CC[C@@H](C(=O)N[C@H](/C=C/C(=O)OC1CCC1)C[C@@H]1CCNC1=O)n1cccc(NC(=O)c2cc(C)on2)c1=O` [Compound 53, trans-(2′S,3′″″S,4S)-4-[2′-(3″-{[1′″-(5″″-Methylisoxazol-3″″-yl)methanoyl]amino}-2′″-oxo-2′″H-pyridin-1′″-yl)pent-4″-ynoylamino]-5-(2′″″-oxopyrrolidin-3′″″-yl)pent-2-enoic Acid Cyclobutyl Ester], the kinact/KI in data set [1] (setting [4]) amounted to 207000 M⁻¹ s⁻¹. Besides, the concentration for a half-maximal effect (EC50) in the data set with HRV-14 amounted to 40 nM; in data set [2] it was 476 nM; in the data set on coxsackievirus B2 (CVB2), 154 nM; in the data set on echovirus 9 (ECHO-9), 26 nM. In data set [3] (line of ECHO-9), this compound yielded a half-maximal cytotoxic concentration (CC50) at 4 days above 10000 nM.
On to `CC[C@@H](C(=O)N[C@H](/C=C/C(=O)OCc1ccccc1)C[C@@H]1CCNC1=O)n1cccc(NC(=O)c2cc(C)on2)c1=O` [Compound 62, trans-(2′S,3′″″S,4S)-4-[2′-(3″-{[1′″-(5″″-Methylisoxazol-3″″-yl)methanoyl]amino}-2′″oxo-2′″H-pyridin-1′″-yl)butanoylamino]-5-(2′″″-oxopyrrolidin-3′″″-yl)pent-2-enoic Acid Benzyl Ester], for which, in data set [1] (setting [5]), the kinact/KI came to 210000 M⁻¹ s⁻¹. In addition, the EC50 with HRV-14 was 61 nM; in data set [2] (H1-HeLa), 298 nM.
In the same order, the values of `C#CC[C@@H](C(=O)N[C@H](/C=C/C(=O)OCc1ccccc1)C[C@@H]1CCNC1=O)n1cccc(NC(=O)c2cc(C)on2)c1=O` [Compound 63, trans-(2′S,3′″″S,4S)-4-[2′-(3″-{[1′″-(5″″-Methylisoxazol-3″″-yl)methanoyl]amino}-2′″-oxo-2′″H-pyridin-1′″-yl)pent-4″-ynoylamino]-5-(2′″″-oxopyrrolidin-3′″″-yl)pent-2-enoic Acid Benzyl Ester] are 300000 M⁻¹ s⁻¹, 51 nM and 153 nM.

Values taken from patent US6514997B2, “Antipicornaviral compounds and compositions, their pharmaceutical uses, and materials for their synthesis” (Agouron Pharmaceuticals, Inc., priority 1999, dated 2003).
